Like-named read-outs stand apart in the source and are kept apart here. No end group written: not given here.
How the values were obtained:
[1] = target: HLA-B*1801 (Homo sapiens, UniProt P01889, A329T/A93T/A95T/C349S/D201E/D54G/D98Y/E176V/E187T/E204Q/E69T/K202T/Q94N/R155S/R180L/S121R/V306I/Y140S/Y195H/Y33H/Y91S); assay: biochemical; assay type: binding
[2] = target: HLA-A*2301 (Homo sapiens, UniProt P04439, D101N/D140Y/D185E/E176V/E190D/F33S/G103R/G107R/H175R/I119L/I121M/I306V/K168Q/K335N/L105A/L300P/N151K/N90K/P307H/Q86E/Q94H/R106L/R138H/R89G/T104I/T345S/V100E/W191G/Y123F); assay: biochemical; assay type: binding
[3] = target: HLA-A*3002 (Homo sapiens, UniProt P04439, D101N/D140H/D185E/E176R/F33S/G80R/H175R/K168Q/Q94H/R138E/R41S/V100E); assay: biochemical; assay type: binding
[4] = target: HLA-A*2902 (Homo sapiens, UniProt P04439, A270S/D101N/D185E/E176V/E277Q/E87Q/F33T/G231S/H175R/I121M/I218V/I322F/K168Q/L300P/L318F/M331R/P208A/P217A/Q86L/T323A/T345S/V100A/V358M); assay: MHC molecular binding / Capture assay, IC50: A*2902
[5] = target: HLA-B*4002 (Homo sapiens, UniProt P01889, A65T/A93T/A95T/D138N/D201E/D98Y/E176V/E204Q/E69K/K202T/N87E/Q56L/Q94N/R180L/S48T/Y33H/Y91S); assay: biochemical; assay type: binding
[6] = target: HLA-A*6802 (Homo sapiens, UniProt P04439, A269V/D140Y/D185E/E176V/E277Q/E87N/F33Y/G231S/I121R/I166T/I218V/L180W/L300P/L318F/N151K/P208A/P217A/Q86R/R138H/R169H/S129P/T345S/V36M); assay: biochemical; assay type: binding
[7] = target: HLA-A*0203 (Homo sapiens, UniProt P04439, A173T/D140Y/D185E/D98H/E277Q/G131W/G231S/I119V/I121R/I166T/I218V/L180W/L300P/L318F/N151K/N90K/P208A/P217A/Q86G/Q94H/R138H/R169H/T345S); assay: biochemical; assay type: binding
[8] = target: HLA-A*0201 (Homo sapiens, UniProt P04439, D140Y/D185E/D98H/E176V/E277Q/G131W/G231S/I119V/I121R/I166T/I218V/L300P/L318F/N151K/N90K/P208A/P217A/Q86G/Q94H/R138H/R169H/T345S); assay: biochemical; assay type: binding
[9] = target: HLA-A*0206 (Homo sapiens, UniProt P04439, D140Y/D185E/D98H/E176V/E277Q/F33Y/G131W/G231S/I119V/I121R/I166T/I218V/L300P/L318F/N151K/N90K/P208A/P217A/Q86G/Q94H/R138H/R169H/T345S); assay: biochemical; assay type: binding
[10] = target: HLA-A*0202 (Homo sapiens, UniProt P04439, D140Y/D185E/D98H/E176V/E277Q/G131W/G231S/I119L/I121R/I166T/I218V/L180W/L300P/L318F/N151K/N90K/P208A/P217A/Q67R/Q86G/Q94H/R138H/R169H/T345S); assay: biochemical; assay type: binding
[11] = A*6802 binding affinity (expressed as an IC50)
[12] = A*0203 binding affinity (expressed as an IC50)
[13] = A*0201 binding affinity (expressed as an IC50)
[14] = A*0206 binding affinity (expressed as an IC50)
[15] = A*0202 binding affinity (expressed as an IC50)

Compound | IC50 [2] | IC50 ([4]; A*2902 binding affinity (IC50)) | IC50 ([3]; A*3002 binding affinity (IC50)) | further results
C[C@H](NC(=O)[C@H](C)NC(=O)[C@H](Cc1ccc(O)cc1)NC(=O)[C@H](CCCCN)NC(=O)[C@H](Cc1ccccc1)NC(=O)[C@@H]1CCCN1C(=O)[C@@H](N)Cc1ccccc1)C(=O)N[C@@H](C)C(=O)N[C@@H](Cc1ccccc1)C(=O)O | – | – | – | IC50 ([1]; B*1801): 16 nM
CC[C@H](C)[C@H](N)C(=O)N[C@@H](CCSC)C(=O)N[C@H](C(=O)N[C@@H](CC(C)C)C(=O)N[C@@H](CO)C(=O)N[C@@H](Cc1ccccc1)C(=O)N[C@@H](CC(C)C)C(=O)N[C@@H](Cc1ccccc1)C(=O)O)C(C)C | 7.5 nM | – | – | IC50 [3]: 30000 nM
CC(C)C[C@H](NC(=O)[C@@H](N)CCCNC(=N)N)C(=O)N[C@@H](C)C(=O)N[C@@H](Cc1c[nH]cn1)C(=O)N[C@@H](CCC(=O)O)C(=O)N[C@H](C(=O)NCC(=O)N[C@@H](Cc1c[nH]c2ccccc12)C(=O)N[C@@H](CCCCN)C(=O)N[C@@H](Cc1ccc(O)cc1)C(=O)O)C(C)C | 4630 nM | – | – | IC50 [3]: 3.8 nM
CC(C)C[C@H](NC(=O)[C@H](CC(C)C)NC(=O)[C@H](C)NC(=O)[C@H](CC(C)C)NC(=O)[C@H](CC(C)C)NC(=O)[C@H](CC(C)C)NC(=O)CNC(=O)[C@H](Cc1c[nH]c2ccccc12)NC(=O)[C@@H](N)CCCNC(=N)N)C(=O)O | 100 nM | – | – | IC50 [4]: 61300 nM; IC50 [3]: 300 nM
CC(C)C[C@H](NC(=O)[C@@H](N)CO)C(=O)N[C@@H](Cc1ccccc1)C(=O)N[C@H](C(=O)N[C@@H](CO)C(=O)N[C@@H](CC(N)=O)C(=O)N[C@@H](Cc1c[nH]cn1)C(=O)N[C@@H](C)C(=O)N[C@@H](Cc1ccc(O)cc1)C(=O)O)C(C)C | 30300 nM | – | – | IC50 [3]: 1.1 nM
AENLWVSVY | – | – | – | IC50 [5]: 1350 nM; IC50 [1]: 232 nM
AYIGPGPGF | 12 nM | 15900 nM | 5730 nM | –
AYSSWMYSY | 21 nM | – | – | IC50 ([3]; Binding affinity to A*3002 (expressed as an IC50)): 4.9 nM
DFFLKSKFNI | 304 nM | – | – | –
FAFKYAAAF | – | – | – | IC50 ([1]; B*1801): 95 nM
FDFKYAAAF | – | – | – | IC50 ([1]; B*1801): 187 nM
FPFDYAAAF | – | – | – | IC50 ([1]; B*1801): 141 nM
FPFKYAKAF | – | – | – | IC50 ([1]; B*1801): 86 nM
FPFKYKAAF | – | – | – | IC50 ([1]; B*1801): 155 nM
FQFKYAAAF | – | – | – | IC50 ([1]; B*1801): 22 nM
FYSKVSEF | 18 nM | – | 66700 nM | –
IYPGPGPGIF | 12 nM | 18700 nM | 18000 nM | –
IYPKGPGPGF | 4.9 nM | 53600 nM | 61300 nM | –
IYSKKRQEIF | 360 nM | – | – | IC50 [4]: > 132000 nM; IC50 [3]: 21000 nM
IYYFDGNSW | 6.1 nM | 3100 nM | 3030 nM | –
KTKDIVNGL | > 49000 nM | – | 164 nM | –
KWSKSSIVGF | 84 nM | – | – | IC50 [4]: > 56200 nM; IC50 [3]: 30400 nM
KYGPGPGTTTL | 130 nM | 9180 nM | 7060 nM | –

Compound | IC50 [2] | IC50 ([4]; A*2902 binding affinity (IC50)) | IC50 ([3]; A*3002 binding affinity (IC50)) | further results
KYQGPGPGTTL | 438 nM | 74500 nM | 6000 nM | –
LFLNTLSF | 104 nM | 1010 nM | 118000 nM | –
LFLSTLSF | 160 nM | – | > 75000 nM | –
LFTDLRIVF | 2.6 nM | – | – | IC50 [4]: 164 nM; IC50 [3]: 2650 nM
LYNTEKGRHPF | 1950 nM | > 50000 nM | > 30000 nM | –
MYGPGPGGSVF | 5.4 nM | 48400 nM | 32000 nM | –
MYVGDGPGPGF | 11 nM | 8660 nM | 39600 nM | –
MYVGDLCGSVF | 0.91 nM | 612 nM | 1460 nM | –
MYVGGPGPGVF | 85 nM | – | – | IC50 ([4]; Binding affinity to A*2902 (expressed as an IC50)): 89 nM
MYVGPGPGSVF | 4.4 nM | – | 28200 nM | –
QLPPLERLTF | 338 nM | – | – | IC50 [4]: > 37300 nM; IC50 [3]: > 36600 nM
QYNKPLCDLLI | 36 nM | > 167000 nM | 6680 nM | –
QYPPLERLTL | 22 nM | – | – | IC50 [4]: > 11500 nM; IC50 [3]: > 9650 nM
RVLPPNWKY | > 49000 nM | – | – | IC50 [3]: 3 nM
RYHNIRGRW | 14 nM | – | – | IC50 [4]: 123000 nM; IC50 [3]: 15 nM
RYLSKISEY | 98 nM | – | – | IC50 [4]: 4250 nM; IC50 [3]: 1.1 nM
RYQDPQNYEL | 124 nM | – | – | –
TYCCKCDSTL | – | – | – | IC50 ([2]; read-out: A*2301 binding affinity (IC50)): 30 nM
TYGIIVPVL | 20 nM | 30100 nM | 1520 nM | –
TYGPGPGSLF | 8.7 nM | 7230 nM | – | –
TYGPGPGSLSF | 1.7 nM | 9850 nM | 47200 nM | –
TYLGPGPGLSF | 0.65 nM | 600 nM | 26900 nM | –
TYLPGPGPGSF | 2.2 nM | 56200 nM | – | –

Compound | IC50 [2] | IC50 ([4]; A*2902 binding affinity (IC50)) | IC50 ([3]; A*3002 binding affinity (IC50)) | further results
TYLPTGPGPGF | 8.6 nM | 56600 nM | 33000 nM | –
TYLPTNASL | 7.8 nM | 106000 nM | 8240 nM | –
TYSGPGPGLF | 92 nM | 7730 nM | – | –
TYSVGPGPGF | 340 nM | 121000 nM | 55200 nM | –
TYSVSFDSLF | 12 nM | – | 5220 nM | –
VFLVFSNVL | 4.9 nM | 33700 nM | 37700 nM | –
VFNVVNSSI | 35 nM | 24000 nM | – | –
VYADLRIVY | 122 nM | – | – | IC50 [4]: 8.2 nM; IC50 [3]: 8.3 nM
VYDFAFRDLCI | 8.9 nM | 62200 nM | 35700 nM | –
VYDFVFADLRI | 8 nM | 8900 nM | 7580 nM | –
VYHTQGYFPDF | 68 nM | – | – | IC50 [3]: > 22600 nM
VYKFLFTDLRI | 14 nM | 30200 nM | 1870 nM | –
VYQFAFKDLCI | 1.9 nM | 49300 nM | 3480 nM | –
YFILVNLL | 82 nM | 4050 nM | 30000 nM | –
YLGPGPGAGI | – | – | – | IC50 [6, 11]: 315 nM; IC50 [7, 12]: 4.2 nM; IC50 [8, 13]: 161 nM; IC50 [9, 14]: 548 nM; IC50 [10, 15]: 1 nM
YLLGPGPGGI | – | – | – | IC50 [6, 11]: 2060 nM; IC50 [7, 12]: 3.3 nM; IC50 [8, 13]: 180 nM; IC50 [9, 14]: 89 nM; IC50 [10, 15]: 12 nM
YLLTGPGPGI | – | – | – | IC50 [6, 11]: 5680 nM; IC50 [7, 12]: 59 nM; IC50 [8, 13]: 42 nM; IC50 [9, 14]: 60 nM; IC50 [10, 15]: 15 nM
YLLTLWKAGI | – | – | – | IC50 [6]: 1390 nM; IC50 [7]: 20 nM; IC50 [8]: 20 nM; IC50 [9]: 40 nM; IC50 [10]: 19 nM
YTPGPGIRYPV | – | – | – | IC50 [6, 11]: 9.2 nM; IC50 [7, 12]: 11100 nM; IC50 [8, 13]: 7760 nM; IC50 [9, 14]: 1110 nM; IC50 [10, 15]: 1990 nM
YVDDVVLGV | – | – | – | IC50 [6, 11]: 354 nM; IC50 [7, 12]: 70 nM; IC50 [8, 13]: 18 nM; IC50 [9, 14]: 16 nM; IC50 [10, 15]: 14 nM
YYGKQENW | 951 nM | > 50000 nM | > 30000 nM | –
